The subject of series [1] is Pinellas culture. Briefly: Batch dechlorination and growth kinetics, Pinellas culture. The format is cell-based, Dehalococcoides-like microorganisms. An excerpt:
(§1) Stock cultures. The Victoria mixed culture, containing strain VS, was maintained in a closed continuously stirred tank reactor (CSTR) as previously described. A VC enrichment of this culture, maintained over 5 years, was also used in these investigations. Liquid cultures of the three other cultures evaluated (Pinellas, KB-1/VC, and Dehalococcoides ethenogenes strain 195) were kept in anaerobic bottles, stored in an anaerobic chamber (10% H2, 10% CO2, 80% N2). The bottles were amended with TCE (1-3 μL neat liquid), VC (250 μL gas), and PCE (1-3 μL neat liquid) being added to each, respectively, approximately every two weeks.
(§2) Batch studies. For the experimental portion of this research, two studies were undertaken, one a comparative VC growth study, and the other a comparative growth and substrate utilization study with different chlorinated ethenes. These studies compared the dechlorination abilities of Dehalococcoides ethenogenes strain 195 and the Dehalococcoides-like microorganisms in the three mixed cultures (Victoria, KB-1/VC, and Pinellas).
(§3) For the first study, a VC enriched inoculum was first developed for each of the three mixed cultures. Here, bottles (120 mL) were filled with 60 mL of anaerobic media in an anaerobic chamber as previously described, and inoculated with 200 μL of each stock culture. Gaseous VC (99.5%) was added with a gas tight syringe (200 μL). The cultures were then moved to a shaker (60-80 rpm) in an anaerobic chamber (20±2° C.). Immediately after 5 μmol of ethene was formed in a bottle, 200 μL of the culture was transferred to fresh media (60 mL), in triplicate, and VC was again added (200 μL). The inoculum for the growth study was that formed after exactly 4 μmol of ethene was produced following this second transfer. To compare growth rates on VC, a range in concentration of each inocula (0.1, 0.3, 1, 3, 9 mL) was transferred to fresh media (as above) to result in a liquid volume of 60 mL, and gaseous VC (200 μL) was added to each. […] Hydrogen served as the electron donor and was non-limiting (>3%) in all studies. Headspace samples were periodically removed by syringe (250 μL) for chlorinated ethene analyses.
(§4) The purpose of the second study was to compare dechlorination rates of PCE, TCE and DCE between the three different cultures that grew on VC (Victoria, KB-1/VC and Pinellas). The development of inocula here was performed with VC, just as in the first study. For the growth and substrate utilization experiments, triplicate bottles were set up for each culture containing 1 mL of inoculum and either neat PCE (0.4 μL), neat TCE (0.3 μL), saturated DCE solution (34 μL) or gaseous VC (200 μL). To further investigate TCE removal, bottles (120 mL) were filled with 20 mL of a highly enriched culture of strain VS made from the Victoria culture. Duplicate bottles were supplied with gaseous VC (50 μL on day 0, then 150 μL on day 3) or TCE (0.4 μL neat liquid). Dechlorination was followed until all VC or TCE was converted to ethene (day 12). The change in strain VS concentration during VC and TCE utilization was then determined both by competitive PCR and by an activity procedure evaluated previously for strain VS. In the activity procedure a non-growth limiting concentration of VC (150 μL) along with excess hydrogen is added to a culture and the initial dechlorination rate is measured (over <1 day). A good estimate of strain VS concentration can then be obtained using the previously determined strain VS maximum VC utilization rate (7.8×10^−10 μmol Cl^− (cell·d)^−1). The increase in strain VS concentration during TCE or VC utilization was determined with these two procedures on the culture before and after TCE and VC utilization.
(§5) Comparative dechlorination and growth kinetics. With mixed cultures, the concentration of organisms carrying out a particular reaction is generally unknown and difficult to determine. […]

For series [2], the system named is Dehalococcoides ethenogenes strain 195. Briefly: Batch dechlorination, D. ethenogenes strain 195 culture. Format: cell-based. The conditions noted are these: cultures supplied with VC or DCE.
Description: as §1, §2
For the first study, a VC enriched inoculum was first developed for each of the three mixed cultures. Here, bottles (120 mL) were filled with 60 mL of anaerobic media in an anaerobic chamber as previously described, and inoculated with 200 μL of each stock culture. Gaseous VC (99.5%) was added with a gas tight syringe (200 μL). […]

Series [3] has as its system KB-1/VC culture. Kind of series: Batch dechlorination and growth kinetics, KB-1/VC culture. The format is cell-based, Dehalococcoides-like microorganisms.
Description: as §1, §2, §3, §4, §5

Series [4] relates to Victoria mixed culture, containing strain VS. Briefly: Batch dechlorination and growth kinetics, Victoria mixed culture. The format is cell-based, Dehalococcoides species strain VS.
Description: as §1, §2, §3, §4, §5

Series [5] has as its system VC reductive dehalogenase of Dehalococcoides sp. strain VS. Kind of series: VC-reduction enzyme assay with Ti(III)-reduced methyl viologen as electron donor, gas chromatography. The format is biochemical. The method, then: Enzyme assays. Cells were harvested by centrifugation (20,000 g, 20 min, 4° C.) under strictly anoxic conditions using the anoxic chamber, washed and resuspended in degassed MOPS buffer (20 mM, pH 7.2) supplemented with 2 mM DTE and 0.2 mM titanium(III)NTA (buffer A). The buffer was incubated overnight in the anoxic chamber before addition of reducing agents. Cell-free extracts were obtained by anoxic disruption of cells by French Press treatment (138 MPa; two passages), followed by two centrifugation steps (30,000×g, 15 min, 4° C.).
Assays of VC-reduction were conducted as described previously in 2-ml glass vials under an N2/H2 atmosphere with Ti(III)-reduced methyl viologen as artificial electron donor (Rosner et al.) The protein concentration in the assay varied between 10 and 100 μg/ml. The test was started by addition of gaseous VC to the assay mix (total aqueous volume 0.3 ml), and change in VC and ethene concentrations were followed with time by gas chromatography. Experiments testing for reduction of liquid chlorinated ethenes (PCE, TCE, DCE-isomers) were carried out essentially as described above with the appropriate substitution of the chlorinated ethene. The chlorinated compounds were added from aqueous stock solutions.
Oxygen sensitivity of VC-reducing activity in cell-free extract was investigated in buffer amended with resazurin as redox indicator. Prior to addition of VC, the assay was exposed to air until the resazurin underwent a color-change from colorless to pink. Subsequently, the assay was rendered anoxic again by exchanging the gas phase inside the anoxic chamber followed by addition of Ti(III)NTA (5 mM final concentration). All enzyme assays were carried out at ambient temperature, and given activities are means of at least three independent measurements.
Partial purification of VC reductase. Protein purification was performed at 4° C. in the anoxic chamber. The membrane fraction was obtained by centrifugation of cell-free extract at 100,000×g for 90 min at 4° C. The pellet was resuspended in 1 ml buffer A supplemented with 2 mM 3-[(3-cholamidopropyl)dimethylammonio]-1-propanesulfonic acid (CHAPS), and incubated for 1 h on ice. After subsequent centrifugation (100,000×g, 90 min, 4° C.) the solubilized membrane fraction was diluted with an equal volume of buffer B (50 mM 1,3-Bis[tris(hydroxymethyl)methylamino]propane (Bis-Tris Propane), pH 9.6, 2 mM dithiothreitol, 0.2 mM titanium(III)NTA, 20 mM CHAPS), and loaded on a 1-ml HighTrap Q column (Amersham Pharmacia) equilibrated with buffer C (same as buffer B but with 2 mM CHAPS). VC reductive dehalogenase activity was eluted as a single peak (at 550 to 580 mM NaCl) with 10 ml buffer C followed by a 40-ml linear gradient from 0-700 mM NaCl in buffer C at a flow of 1 ml/min. Fractions containing the highest activity were pooled and mixed with an equal volume of buffer A containing 20 mM CHAPS, and applied to a Superose-6 column equilibrated with the same buffer. Enzyme activity was eluted with buffer A at a flow rate of 0.2 ml/min. The protein concentration of the samples was determined according to Bradford with bovine serum albumin as a standard.

Consider 3 molecules from patent publication US8647824B2, “Microbial reductive dehalogenation of vinyl chloride” (The Board of Trustees of the Leland Stanford Junior …, priority 2004, dated 2014).

“And” between values parts separate entries of the source, which are not always exact repeats. Equal entries are not always repeated.

For the molecule `Cl/C=C\Cl` [DCE, cis-1,2-dichloroethene], the “Maximum Growth Rate” value was 0.43 day⁻¹ and 0.43 ± 0.00 day⁻¹ in series [1] (95% confidence interval); 0.44 ± 0.02 day⁻¹ in series [3] (95% confidence interval); 0.46 ± 0.04 day⁻¹ in series [4] (VS Mixed (Victoria) culture, 95% confidence interval, least-squares model fit). Besides, the “dechlorination by D. ethenogenes strain 195” value in series [2] is on record as “did dechlorinate DCE to VC”.
Turning to `ClC(Cl)=C(Cl)Cl` [PCE, tetrachloroethene], the PCE dechlorination entry in series [1] and in series [3] was “failed to dechlorinate” throughout. Further, in series [4] (Victoria mixed culture), the “lag period before PCE dechlorination” value fell in the range of 6 to 12 days. Moreover, the “transformation during the course of the enzyme assay” value in series [5] (2 h) was “not transformed”. For the same molecule, the “effect on the reduction rate of VC” value in series [5] (saturating concentrations of PCE or TCE present) is on record as “not affected”.

B1: VC reductive dehalogenase: VC reductive dehalogenase partially purified from Dehalococcoides sp. strain VS; corrinoid/iron-sulfur cluster reductive dehalogenase (protein)
chain: MSKFHKTISRRDFMKGLGLAGAGIGAVAASAPVFHDIDELVSSEANSTKDQPWYVKHREHFDPTITVDWDIFDRYDGYQHKGVYEGPPDAPFTSWGNRLQVRMSGEEQKKRILAAKKERFPGWDGGLHGRGDQRADALFYAVTQPFPGSGEEGHGLFQPYPDQPGKFYARWGLYGPPHDSAPPDGSVPKWEGTPEDNFLMLRAAAKYFGAGGVGALNLADPKCKKLIYKKAQPMTLGKGTYSEIGGPGMIDAKIYPKVPDHAVPINFKEADYSYYNDAEWVIPTKCESIFTFTLPQPQELNKRTGGIAGAGSYTVYKDFARVGTLVQMFIKYLGYHALYWPIGWGPGGCFTTFDGQGEQGRTGAAIHWKFGSSQRGSERVITDLPIAPTPPIDAGMFEFCKTCYICRDVCVSGGVHQEDEPTWDSGNWWNVQGYLGYRTDWSGCHNQCGMCQSSCPFTYLGLENASLVHKIVKGVVANTTVFNSFFTNMEKALGYGDLTMENSNWWKEEGPIYGFDPGT
modifications: partially purified native enzyme; Dehalococcoides sp. VS
For the molecule B1, the “Sp act (VC reduction)” value in series [5] (step: Anionic exchange chromotagraphy) turned out to be 638 mU/mg protein; in series [5] (step: Cell-free extract, 1 mU = 1 nmol VC per minute) it was 220 mU/mg protein; in series [5] (step: Gelfiltration), 990 mU/mg protein; in series [5] (step: Membrane fraction), 346 mU/mg protein; in series [5] (step: Solubilized membrane fraction), 308 mU/mg protein.
